Test results taken from patent US5053561A, “Method of isolating trans-1,1,4,4-tetraalkyl-2-butene-1,4-diols” (BASF Aktiengesellschaft, priority 1989, dated 1991).

Assay: Determination of the distribution coefficients between polar and non-polar phases
Assay type: physicochemical
Conditions: for Distribution coefficient k: 25° C.; for phase in which the isomer accumulates: seen from the distribution coefficients of Table 1
Text: To achieve separation of the cis- and trans-isomers of the alkenediols I which is as complete, efficient and economical as possible, it is necessary, when selecting the solvents for the polar and non-polar phases, to ensure that the quotient of the distribution coefficients ktrans /kcis of the trans- and cis-isomers between the polar and non-polar phases is as large as possible. The distribution coefficient k of the cis- or trans-isomer is defined as the concentration of isomer in the polar phase divided by the concentration of the same isomer in the non-polar phase in the equilibrium state, as illustrated by the following equations (1) and (2): [formula]
2 g of cis- or trans-alkenediol were dissolved, at 25° C., in a mixture of 40 ml of a polar solvent and 40 ml of a non-polar solvent. The mixture was vigorously shaken in a separating funnel for 10 minutes. Following separation of the phases, the solvents were removed by distillation under reduced pressure. The residues were weighed, and the results were used to calculate the distribution coefficients as defined in equations (1) and (2) above (see Table 1 below).

[1] = polar phase water + 2% methanol, non-polar phase toluene
[2] = polar phase water + 10% ethanol, non-polar phase toluene
[3] = polar phase water, non-polar phase cyclohexane
[4] = polar phase water, non-polar phase methyl cyclohexane
[5] = polar phase water, non-polar phase methyl isobutylketone
[6] = polar phase water, non-polar phase methylene chloride
[7] = polar phase water, non-polar phase n-hexane
[8] = polar phase water, non-polar phase toluene

SMILES	Distribution coefficient k [1]	Distribution coefficient k [2]	Distribution coefficient k [3]	Distribution coefficient k [4]	Distribution coefficient k [5]	Distribution coefficient k [6]	Distribution coefficient k [7]	Distribution coefficient k [8]	phase in which the isomer accumulates
CC(C)(O)/C=C\C(C)(C)O [cis, cis-2,5-dimethyl-3-hexene-2,5-diol]	0.39	0.35	0.56	0.61	0.09	0.17	0.76	0.38	accumulates in the non-polar phase
CC(C)(O)/C=C/C(C)(C)O [trans, trans-2,5-dimethyl-3-hexene-2,5-diol]	62	23	30	52	3.0	7.3	34	25	accumulates in the polar phase
